Experimental data: patent US5563155A, “Individual stereosiomers of 7-[3-(aminoalkyl)-1-pyrrolidinyl]-quinolones and naphthyridones as antibacterial agents” (Warner-Lambert Company, priority 1995, dated 1996)
In brackets after ≈: the same amount, converted by molar mass. Read-outs that look alike come from different tables or passages of the source.

Legend:
[1] = system: Klebs. pneumoniae MGH-2; assay: in vitro antibacterial activity, microtitration dilution (MIC), Klebs. pneumoniae MGH-2; type: cell-based; conditions: Klebsiella pneumoniae, MGH2, read-out: minimum inhibiting concentration (MIC)
Outline: (§1)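 MICs (μg/mL) determined by microtitration broth dilution following the Heifetz et al. method.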

[2] = system: Strep. pyogenes C-203; assay: in vitro antibacterial activity, microtitration dilution (MIC), Strep. pyogenes C-203; type: cell-based; conditions: Streptococcus pyogenes, C203, read-out: minimum inhibiting concentration (MIC)
Outline: as §1

[3] = system: Strep. faecalis MGH-2; assay: in vitro antibacterial activity, microtitration dilution (MIC), Strep. faecalis MGH-2; type: cell-based; conditions: Enterococcus faecalis, MGH2, read-out: minimum inhibiting concentration (MIC)
Outline: as §1

[4] = system: Esch. coli Vogel; assay: in vitro antibacterial activity, microtitration dilution (MIC), Esch. coli Vogel; type: cell-based; conditions: Escherichia coli, read-out: minimum inhibiting concentration (MIC)
Outline: as §1

[5] = system: Ent. cloacae MA2646; assay: in vitro antibacterial activity, microtitration dilution (MIC), Ent. cloacae MA2646; type: cell-based; conditions: Enterobacter cloacae, read-out: minimum inhibiting concentration (MIC)
Outline: as §1

[6] = cytotoxicity, hamster V-79 cells, colony reduction; type: cell-based; conditions: 3 hours treatment, colonies counted after 5 days, read-out: Cytotox (cytotoxicity IC50)
Description: The cytotoxicity data is obtained using hamster V-79 cells. The cells were suspended in tissue culture medium and grown overnight. Cells were treated with drug for 3 hours, washed free of drug and then replated, and the colonies counted after 5 days. The concentration of drug that reduced colones by 50% relative to control was recorded.
(§2) By use of the above methods, the following minimum inhibiting concentration values (MICs in μg/mL), PD50 's in mg/kg, no effect phototoxicity dose in mg/kg and the cytotoxicity IC50 in μg/mL were obtained for representative enantiomers of the invention and compounds of the prior art as shown in the table.

[7] = system: Esch. coli Vogel; assay: median protective dose in mice given lethal systemic infections, Esch. coli Vogel; type: in vivo; conditions: Escherichia coli, single dose at time of challenge, read-out: median protective dose (PD50)
Description: (§3) The in vivo activity is obtained when the compounds are tested according to the procedure of Miller, et al (Proc. Soc. Exp. Biol. Med. 57, 261, 1944). The median protective dose (PD50) was determined in mice given lethal systemic infections. Single doses of compound were given at time of challenge.
as §2
(§4) The in vivo data as PD50 s are reported below the line of MICs for the same compound.

[8] = system: Strep. pyogenes C-203; assay: median protective dose in mice given lethal systemic infections, Strep. pyogenes C-203; type: in vivo; conditions: Streptococcus pyogenes, single dose at time of challenge, read-out: median protective dose (PD50)
Outline: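 Mice given lethal systemic infections received single compound doses at time of challenge; PD50 (mg/kg) is the median protective dose.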

[9] = system: Staph. aureus H 228; assay: in vitro antibacterial activity, microtitration dilution (MIC), Staph. aureus H 228; type: cell-based; conditions: Staphylococcus aureus, H228, read-out: minimum inhibiting concentration (MIC)
Outline: as §1

[10] = system: Strep. pheumoniae SV-1; assay: in vitro antibacterial activity, microtitration dilution (MIC), Strep. pneumoniae SV-1; type: cell-based; conditions: Streptococcus pneumoniae, SV1, read-out: minimum inhibiting concentration (MIC)
Outline: as §1

[11] = system: Staph. aureus UC-76; assay: in vitro antibacterial activity, microtitration dilution (MIC), Staph. aureus UC-76; type: cell-based; conditions: Staphylococcus aureus, UC76, read-out: minimum inhibiting concentration (MIC)
Outline: as §1

[12] = system: Prot. rettgeri M 1771; assay: in vitro antibacterial activity, microtitration dilution (MIC), Prot. rettgeri M 1771; type: cell-based; conditions: Providencia rettgeri, M1771, read-out: minimum inhibiting concentration (MIC)
Outline: as §1

[13] = in vivo; set-up: species or system mice; conditions: mouse, po
Description: The phototoxicity data is obtained using depilated mice. The compound was administered orally each day for four successive days, followed each day by 3 hours of UVA radiation. The mice were examined for any positive signs (redness, erythema) relative to control animals. The no effect dose and the 50% effect dose were determined. By use of the above methods, the following minimum inhibiting concentration values (MICs in μg/mL), PD50 's in mg/kg, no effect phototoxicity dose in mg/kg and the cytotoxicity IC50 in μg/mL were obtained for representative enantiomers of the invention and compounds of the prior art as shown in the table.

[14] = system: Pseud. aeruginosa UI-18; assay: in vitro antibacterial activity, microtitration dilution (MIC), Pseud. aeruginosa UI-18; type: cell-based; conditions: Pseudomonas aeruginosa, UI18, read-out: minimum inhibiting concentration (MIC)
Outline: as §1

[15] = system: Strep. pheumoniae SV-1; assay: median protective dose in mice given lethal systemic infections, Strep. pneumoniae SV-1; type: in vivo; conditions: Streptococcus pneumoniae, single dose at time of challenge, read-out: median protective dose (PD50)
Description: as §3, §2, §4

[16] = system: Pseud. aeruginosa UI-18; assay: median protective dose in mice given lethal systemic infections, Pseud. aeruginosa UI-18; type: in vivo; conditions: Pseudomonas aeruginosa, single dose at time of challenge, read-out: median protective dose (PD50)
Description: as §3, §2, §4

| Compound | MIC [1] | MIC [2] | MIC [3] | MIC [4] | MIC [5] | CC50 at 3 h [6] | ED50 ([7]; PO) | ED50 ([7]; SC) | ED50 ([8]; C203, PO) | ED50 ([8]; C203, SC) | MIC [9] | MIC [10] | MIC [11] | MIC [12] | NOAEL at 96 h [13] | MIC [14] | ED50 ([15]; SV1, PO) | ED50 ([15]; SV1, SC) | ED50 ([16]; UI18, PO) | ED50 ([16]; UI18, SC) |
| --- | --- | --- | --- | --- | --- | --- | --- | --- | --- | --- | --- | --- | --- | --- | --- | --- | --- | --- | --- | --- |
| CCN[C@@H](C)[C@@H]1CCN(c2c(F)cc3c(=O)c(C(=O)O)cn(C4CC4)c3c2OC)C1 [Example 18, 3R,1S-1-cyclopropyl-6-fluoro-7-[3-(1-N-ethylaminoethyl)-1-pyrrolidinyl]-8-methoxy-1,4-dihydro-4-3-quinolinecarboxylic acid] | 0.2 µg/mL (≈ 0.479 µM) | 0.006 µg/mL (≈ 0.0144 µM) | 0.025 µg/mL (≈ 0.0599 µM) | 0.1 µg/mL (≈ 0.24 µM) | 0.1 µg/mL (≈ 0.24 µM) | 110 µg/mL (≈ 263 µM) | 5 mg/kg | 2 mg/kg | 0.5 mg/kg | 0.2 mg/kg | 0.013 µg/mL (≈ 0.0311 µM) | 0.005 µg/mL (≈ 0.012 µM) | 0.003 µg/mL (≈ 0.00719 µM) | 0.4 µg/mL (≈ 0.958 µM) | > 100 mg/kg | 3.1 µg/mL (≈ 7.43 µM) | – | – | – | – |
| CCN[C@H](C)[C@@H]1CCN(c2c(F)cc3c(=O)c(C(=O)O)cn(C4CC4)c3c2OC)C1 [Example 17] | 0.4 µg/mL (≈ 0.958 µM) | 0.003 µg/mL (≈ 0.00719 µM) | 0.013 µg/mL (≈ 0.0311 µM) | 0.2 µg/mL (≈ 0.479 µM) | 0.2 µg/mL (≈ 0.479 µM) | 130 µg/mL (≈ 311 µM) | 14 mg/kg | 4 mg/kg | 2 mg/kg | 0.6 mg/kg | 0.013 µg/mL (≈ 0.0311 µM) | 0.003 µg/mL (≈ 0.00719 µM) | 0.003 µg/mL (≈ 0.00719 µM) | 0.8 µg/mL (≈ 1.92 µM) | > 100 mg/kg | 3.1 µg/mL (≈ 7.43 µM) | – | – | – | – |
| CN[C@@H](C)[C@@H]1CCN(c2c(F)c(N)c3c(=O)c(C(=O)O)cn(C4CC4)c3c2F)C1 [Example 42, 3R,1S-5-amino-1-cyclopropyl-6,8-difluoro-7-[3-(1-N-methylaminoethyl)-1-pyrrolidinyl]-1,4-dihydro-4-oxo-3-quinoline carboxylic acid] | 0.05 µg/mL (≈ 0.123 µM) | 0.006 µg/mL (≈ 0.0148 µM) | 0.013 µg/mL (≈ 0.032 µM) | 0.025 µg/mL (≈ 0.0615 µM) | 0.025 µg/mL (≈ 0.0615 µM) | 17 µg/mL (≈ 41.8 µM) | 3 mg/kg | 0.4 mg/kg | 0.55 mg/kg | 0.25 mg/kg | 0.006 µg/mL (≈ 0.0148 µM) | 0.006 µg/mL (≈ 0.0148 µM) | 0.003 µg/mL (≈ 0.00738 µM) | 0.1 µg/mL (≈ 0.246 µM) | < 30 mg/kg | 0.8 µg/mL (≈ 1.97 µM) | – | – | – | – |
| C[C@@H](N)[C@H]1CCN(c2nc3c(cc2F)c(=O)c(C(=O)O)cn3C2CC2)C1 [Example 5, 3S,1R-1-cyclopropyl-6-fluoro-7-[3-(1-aminoethyl)-1-pyrrolidinyl]-1,4-dihydro-4-oxo-1,8-naphthyridine-3-carboxylic acid] | 0.1 µg/mL (≈ 0.277 µM) | 0.05 µg/mL (≈ 0.139 µM) | 0.1 µg/mL (≈ 0.277 µM) | 0.05 µg/mL (≈ 0.139 µM) | 0.05 µg/mL (≈ 0.139 µM) | 84 µg/mL (≈ 233 µM) | 4 mg/kg | 1 mg/kg | – | – | 0.2 µg/mL (≈ 0.555 µM) | 0.05 µg/mL (≈ 0.139 µM) | 0.025 µg/mL (≈ 0.0694 µM) | 0.2 µg/mL (≈ 0.555 µM) | > 100 mg/kg | 0.8 µg/mL (≈ 2.22 µM) | 15 mg/kg | 7 mg/kg | 23 mg/kg | 16 mg/kg |
| C[C@H](N)[C@@H]1CCN(c2nc3c(cc2F)c(=O)c(C(=O)O)cn3-c2ccc(F)cc2F)C1 [Example 43, 3R,1S-7-[3(1-aminoethyl)-1-pyrrolidinyl]-1-(2,4-difluorophenyl)-6-fluoro-1,4-dihydro-4-oxo-1,8-naphthyridine-3-carboxylic acid] | 0.2 µg/mL (≈ 0.463 µM) | 0.006 µg/mL (≈ 0.0139 µM) | 0.025 µg/mL (≈ 0.0578 µM) | 0.1 µg/mL (≈ 0.231 µM) | 0.2 µg/mL (≈ 0.463 µM) | 280 µg/mL (≈ 648 µM) | 3.5 mg/kg | 1 mg/kg | 1 mg/kg | 1 mg/kg | 0.05 µg/mL (≈ 0.116 µM) | 0.006 µg/mL (≈ 0.0139 µM) | 0.006 µg/mL (≈ 0.0139 µM) | 0.4 µg/mL (≈ 0.925 µM) | > 100 mg/kg | 0.8 µg/mL (≈ 1.85 µM) | 3 mg/kg | 3 mg/kg | – | – |
| C[C@H](N)[C@H]1CCN(c2nc3c(cc2F)c(=O)c(C(=O)O)cn3C2CC2)C1 [Example 6, 3S,1S-1-cyclopropyl-6-fluoro-7-[3-(1-aminoethyl)-1-pyrrolidinyl]-1,4-dihydro-4-oxo-1,8-naphthyridine-3-carboxylic acid] | 0.2 µg/mL (≈ 0.555 µM) | 0.05 µg/mL (≈ 0.139 µM) | 0.1 µg/mL (≈ 0.277 µM) | 0.05 µg/mL (≈ 0.139 µM) | 0.05 µg/mL (≈ 0.139 µM) | 77 µg/mL (≈ 214 µM) | 8 mg/kg | 1 mg/kg | – | – | 0.2 µg/mL (≈ 0.555 µM) | 0.05 µg/mL (≈ 0.139 µM) | 0.025 µg/mL (≈ 0.0694 µM) | 0.4 µg/mL (≈ 1.11 µM) | > 100 mg/kg | 1.6 µg/mL (≈ 4.44 µM) | 28 mg/kg | 10 mg/kg | 96 mg/kg | 25 mg/kg |
| CN[C@@H](C)[C@@H]1CCN(c2c(F)cc3c(=O)c(C(=O)O)cn(C4CC4)c3c2OC)C1 [Example 36, 3R,1S-1-cyclopropyl-6-fluoro-7-[3-(1-N-methylaminoethyl)-1-pyrrolidinyl]-8-methoxy-1,4-dihydro-4-oxo-3-quinolinecarboxylic acid] | 0.1 µg/mL (≈ 0.248 µM) | 0.003 µg/mL (≈ 0.00744 µM) | 0.025 µg/mL (≈ 0.062 µM) | 0.05 µg/mL (≈ 0.124 µM) | 0.05 µg/mL (≈ 0.124 µM) | 33 µg/mL (≈ 81.8 µM) | 4 mg/kg | 1 mg/kg | 1 mg/kg | 0.1 mg/kg | 0.013 µg/mL (≈ 0.0322 µM) | 0.013 µg/mL (≈ 0.0322 µM) | 0.013 µg/mL (≈ 0.0322 µM) | 0.2 µg/mL (≈ 0.496 µM) | > 100 mg/kg | 0.8 µg/mL (≈ 1.98 µM) | – | – | – | – |
